# Data published in US7723056B1, “Particles” (The University of Manchester, priority 1997, dated 2010).
# Residues, ends and D or L forms follow the SMILES beside them. *: point of attachment. Myristoyl = CCCCCCCCCCCCCC(=O)*
# Tested on: erythrocytes
# Assay: Haemoglobin assay of erythrocyte lysis
# Assay type: cell-based, rats
# Conditions: rat erythrocytes, no bacteria; haemoglobin at 578 nm; 100% = Triton X100
# Experimental: Fresh rats blood was obtained with sodium heparin added to prevent clotting. Following centrifugation at 600 g for 10 mins and discarding of the supernatant, the pelleted erythrocytes were resuspended and washed three times in isotonic sucrose-glucose phosphate buffer (0.2M sucrose, 0.1M glucose 10 mM sodium phosphate, pH 7.3). Erythrocytes were used on the same day.
# Leakage of haemoglobin from the erythrocytes (50 μl aliquots) was assayed spectrophotometrically at 578 nm against isotonic sucrose glucose phosphate buffer. Percentage lysis of the erythrocytes was established by construction of a standard curve. The supernatant from the centrifuged cells (3.2) represented 0% whereas 100% lysis obtained by incubation with 20 ul 10% v/v Triton X100 for 10 minutes.
# Cultures were centrifuged at 600 g for 10 minutes and the supernatant examined spectrophotometrically as described above to assess erythrocyte lysis. In the presence of particles (but no bacteria) erythrocyte lysis varied between 0.88 and 0.61% with a mean of 0.73%. Addition of M-GALA alone to erythrocytes produced a lysis of 0.31%. No lysis occurred for erythrocytes left in buffer only.
smiles,measurement,value
"CCCCCCCCCCCCCC(=O)N[C@@H](Cc1c[nH]c2ccccc12)C(=O)N[C@@H](CCC(=O)O)C(=O)N[C@@H](C)C(=O)N[C@@H](C)C(=O)N[C@@H](CC(C)C)C(=O)N[C@@H](C)C(=O)N[C@@H](CCC(=O)O)C(=O)N[C@@H](C)C(=O)N[C@@H](CC(C)C)C(=O)N[C@@H](C)C(=O)N[C@@H](CCC(=O)O)C(=O)N[C@@H](C)C(=O)N[C@@H](CC(C)C)C(=O)N[C@@H](C)C(=O)N[C@@H](CCC(=O)O)C(=O)N[C@@H](Cc1c[nH]cn1)C(=O)N[C@@H](CC(C)C)C(=O)N[C@@H](C)C(=O)N[C@@H](CCC(=O)O)C(=O)N[C@@H](C)C(=O)N[C@@H](CC(C)C)C(=O)N[C@@H](C)C(=O)N[C@@H](CCC(=O)O)C(=O)N[C@@H](C)C(=O)N[C@@H](CC(C)C)C(=O)N[C@@H](CCC(=O)O)C(=O)N[C@@H](C)C(=O)N[C@@H](CC(C)C)C(=O)N[C@@H](C)C(=O)N[C@@H](C)C(=O)O [M-GALA, N, Myristic-GALA] (Myristoyl-WEAALAEALAEALAEHLAEALAEALEALAA-OH)",erythrocyte lysis,0.31%
